This note sets out measurements from patent US20260130924A1, “COMPOSITIONS AND METHODS OF TREATING SUBJECTS WITH BRCA1 MUTATION OR DEFICIENCY” (BOARD OF REGENTS, THE UNIVERSITY OF TEXAS SYSTEM, priority 2022, published 2026).

Common to all, as to assay type: cell-based, human
Experiment [1] deals with WT, BRCA1- or VDAC3-deficient cells. In words: Rescue of Erastin-induced ferroptosis by antioxidants (cell viability). The settings on record: for effect on Erastin-induced ferroptosis: wild-type (WT), BRCA1- or VDAC3-deficient cells. The method, then: (§1) Viable cells were measured using Cell Counting Kit-8 (CCK-8, Dojindo) as previously described. Briefly, cells were seeded onto 96-well plates and subsequently treated with indicated agents. Next, cells were exposed to 10 μL of CCK-8 reagent (100 μL of medium per well) for 1 hour at 37° C. with 5% CO2 in an incubator. The absorbance at a wavelength of 450 nm was determined using a FLUOstar Omega microplate reader (BMG Labtech). The combination effects were assessed with Bliss independence model and the score is defined as “observed combination effect” minus “expected additive effect”.

The subject of experiment [2] is NRF2 and GPX4. Kind of experiment: NRF2 and GPX4 protein levels (western blotting). The settings on record: for GPX4 levels: BRCA1-mutant SUM149 cells. The method, then: Cell pellets were lysed using immunoprecipitation lysis buffer (Fisher Scientific) or NP-40 buffer containing complete mini protease inhibitors (Roche). Protein concentrations were detected by a Bicinchoninic Acid Protein Assay (Thermo Scientific) using a FLUOstar Omega microplate reader (BMG Labtech). Immunoprecipitation and Western blot analysis were conducted as previously described. The primary antibodies and concentrations used in the current study included the followed: GPX4 (1:1,000, MAB5457, R&D systems), BRCA1 (1:1,000, 14823, Cell Signaling), BRCA2 (1:1,000, MAB2476-SP, R&D Systems), DHODH (1:1,000, 14877-1-AP, Proteintech), ACSL4 (1:1,000, sc-271800, Santa Cruz), FSP1 (1:1,000, 20886-1-AP, Proteintech), VDAC1 (1:1,000, 66345-1-Ig, Proteintech), VDAC2 (1:1,000, 66388-1-Ig, Proteintech), VDAC3 (1:1,000, 55260-1-AP, Proteintech), SLC7A11 (1:1,000, 12691, Cell Signaling), NCOA4 (1:1,000, 66849, Cell Signaling), vinculin (1:10000; […], Sigma), β-actin (1:1,000, 3700, Cell Signaling), LC3B (1:5000, 3868, Cell Signaling), 53BP1 (1:5000, NB100-304, Novus Biologicals), E-Cadherin (1:1000, 3195, Cell Signaling), and tubulin (1:5000, 2144, Cell Signaling).

Experiment [3] has as its system SUM149 and HS578T cells. Kind of experiment: ROS-related cell death in SUM149 and HS578T cells (cell viability). Here is the method:
as §1

Experiment [4] deals with BRCA1 sgRNA-infected (BRCA1 sg) cells. In words: FIN-induced lipid peroxidation and ferroptosis in BRCA1 sgRNA-infected cells. The conditions noted are these: for effect of BRCA1 deficiency on the lipid peroxidation and ferroptosis induced by the compound: BRCA1 sg cells versus control; for effect on RSL3-induced cell death in BRCA1 sg cells: co-treatment with RSL3. The method, then: (§2) Knockout of BRCA1, BRCA2, VDAC3, GPX4, ECAD, 53BP1, and NCOA4 in human cell lines was performed using single guide RNAs (sgRNAs) and the CRISPR-Cas9 expression system as previously described. Briefly, sgRNAs were cloned into the lentiviral LentiGuide vector. The sequences of sgRNAs used in the current study are listed in SEQ ID NOs 1-23. LentiGuide clones were transfected into HEK293T cells with a psPAX2 packaging plasmid and pMD2.G-expressing plasmid. Cells were infected with lentivirus with 0.8 μg/mL polybrene and selected with puromycin (1 μg/mL, InvivoGen) or blasticidin (2 μg/mL, InvivoGen), followed by Western blot analysis to confirm target gene deletion. To maintain GPX4 knockout cells, we added 1 μM ferrostatin-1 into the media.
as §1
(§3) Cell death was measured by propidium iodide (Roche) staining using a flow cytometer, as previously described. Briefly, cells were seeded onto 6- or 12-well plates and subsequently treated with indicated agents. For GPX4 knockout cells, ferrostatin-1 was removed from the culture media. Next, cells were collected (including floating dead cells) and stained with 5 μg/mL propidium iodide. The percentage of the propidium iodide-positive dead cells was determined using the flow cytometer BD Accuri C6 (BD Biosciences) or Attune NXT Flow Cytometer (ThermoFisher) with an FL2 detector. A minimum of 5,000 single cells were analyzed per well.
(§4) As previously described C11-BODIPY 581/591 (Invitrogen) was used for lipid peroxidation, MitoPerOx (Abcam) for mitochondrial lipid peroxidation, and CM-H2DCFDA (ThermoFisher) for ROS measurements. Briefly, cells were seeded on 6- or 12-well plates and subsequently treated with indicated agents. After staining with 2.5 μM C11-BODIPY 581/591, 2.5 μM MitoPerOx, or 4 μM CM-H2DCFDA for 20 minutes, cells were analyzed using the flow cytometer BD Accuri C6 (BD Biosciences) or Attune NxT Flow Cytometer (ThermoFisher) with a 488-nm laser on an FL1 detector. A minimum of 5,000 single cells were analyzed per well.

Experiment [5] has as its system VDAC3-KO cells. In words: FIN-induced ferroptosis in VDAC3-KO cells. The settings on record: VDAC3 sg cells versus control. The method, then:
as §2
Viable cells were measured using Cell Counting Kit-8 (CCK-8, Dojindo) as previously described. Briefly, cells were seeded onto 96-well plates and subsequently treated with indicated agents. […] The absorbance at a wavelength of 450 nm was determined using a FLUOstar Omega microplate reader (BMG Labtech). The combination effects were assessed with Bliss independence model and the score is defined as “observed combination effect” minus “expected additive effect”.
Cell death was measured by propidium iodide (Roche) staining using a flow cytometer, as previously described. […] The percentage of the propidium iodide-positive dead cells was determined using the flow cytometer BD Accuri C6 (BD Biosciences) or Attune NXT Flow Cytometer (ThermoFisher) with an FL2 detector. A minimum of 5,000 single cells were analyzed per well.
As previously described C11-BODIPY 581/591 (Invitrogen) was used for lipid peroxidation, MitoPerOx (Abcam) for mitochondrial lipid peroxidation, and CM-H2DCFDA (ThermoFisher) for ROS measurements. […] After staining with 2.5 μM C11-BODIPY 581/591, 2.5 μM MitoPerOx, or 4 μM CM-H2DCFDA for 20 minutes, cells were analyzed using the flow cytometer BD Accuri C6 (BD Biosciences) or Attune NxT Flow Cytometer (ThermoFisher) with a 488-nm laser on an FL1 detector. A minimum of 5,000 single cells were analyzed per well.

The subject of experiment [6] is BRCA1-mutant cancer cells (SUM149, HCC1937). Kind of experiment: PARPi+GPX4i combination-induced lipid peroxidation and cell death. The conditions noted are these: for effect on cell death induced by PARP inhibitor+GPX4 inhibitor combination: BRCA1-mutant cells. Here is the method: as §3, §4
Experiment [7] concerns BRCA2 sgRNA infected HT1080 cells. In words: FIN sensitivity of BRCA2 sgRNA-infected HT1080 cells. The conditions noted are these: BRCA2 sg HT1080 versus control. The method, then:
as §2, §1

For experiment [8], the system named is NCOA4. In words: NCOA4 expression after PARPi treatment (western blotting). The conditions noted are these: SUM149 and HCC1937 cells. Here is the method:
Cell pellets were lysed using immunoprecipitation lysis buffer (Fisher Scientific) or NP-40 buffer containing complete mini protease inhibitors (Roche). Protein concentrations were detected by a Bicinchoninic Acid Protein Assay (Thermo Scientific) using a FLUOstar Omega microplate reader (BMG Labtech). Immunoprecipitation and Western blot analysis were conducted as previously described. The primary antibodies and concentrations used in the current study included the followed: GPX4 (1:1,000, MAB5457, R&D systems), BRCA1 (1:1,000, 14823, Cell Signaling), BRCA2 (1:1,000, MAB2476-SP, R&D Systems), DHODH (1:1,000, 14877-1-AP, Proteintech), ACSL4 (1:1,000, sc-271800, Santa Cruz), FSP1 (1:1,000, 20886-1-AP, Proteintech), VDAC1 (1:1,000, 66345-1-Ig, Proteintech), VDAC2 (1:1,000, 66388-1-Ig, Proteintech), VDAC3 (1:1,000, 55260-1-AP, Proteintech), SLC7A11 (1:1,000, 12691, Cell Signaling), NCOA4 (1:1,000, 66849, Cell Signaling), vinculin (1:10000; V4505, Sigma), β-actin (1:1,000, 3700, Cell Signaling), LC3B (1:5000, 3868, Cell Signaling), 53BP1 (1:5000, NB100-304, Novus Biologicals), E-Cadherin (1:1000, 3195, Cell Signaling), and tubulin (1:5000, 2144, Cell Signaling).

Where [9] appears, read: BRCA1 sgRNA infected SKOV3 cells.

Entries after “also recorded” stand apart in the source; their conditions may differ.

As for `CC1(C)CC(NC(=O)C[P+](c2ccccc2)(c2ccccc2)c2ccccc2)CC(C)(C)N1[O]` [MitoTEMPO], the entries for the “effect on cell viability of Erastin-treated cells” value in experiment [1] (BRCA1- or VDAC3-deficient counterparts) and in experiment [1] (WT cells) were “did not provide a protective effect” and “largely restored cell viability”, respectively.
As to `CC(=O)N[C@@H](CS)C(=O)O` [NAC, N-acetyl-1-cysteine], in experiment [2] (BRCA1-WT HS578T cells), the “effect on PARP inhibitor-induced NRF2 and GPX4 induction” value is given as “abolished”. For the same compound, in experiment [3] (BRCA1-deficient SUM149 cells), the “effect on PARP inhibitor-induced cell killing” value is given as “partially restored; also recorded: suppressed”.
For `O=C(O)c1cc(/N=N/c2ccc(S(=O)(=O)Nc3ccccn3)cc2)ccc1O` [sulfasalazine], the “effect of BRCA1 deficiency on the lipid peroxidation and ferroptosis induced by the compound” value in experiment [4] is on record as “did not affect”. Besides, in experiment [5], the “effect of VDAC3 deletion on the lipid peroxidation, ferroptosis or sensitivity induced by the compound” value is “did not affect”.
As for Z-VAD, in experiment [4], the “effect on RSL3-induced cell death in BRCA1 sg cells” value was “not”. Further, in experiment [6], the “effect on cell death induced by PARP inhibitor+GPX4 inhibitor combination” value was “not”.
Regarding `C[S+]([O-])CCCCN=C=S` (centres unmarked) [sulforaphane], in experiment [2], the GPX4 levels result was “increased GPX4 levels”.
Regarding `CCOC(=O)c1ccc(NC2CCCCC2)c(N)c1` [ferrostatin-1], in experiment [4], the “effect on RSL3-induced cell death in BRCA1 sg cells” value is given as “abolished”. Moreover, the “effect on Erastin-induced ferroptosis” value in experiment [1] was “completely suppressed”. The “effect on cell death induced by PARP inhibitor+GPX4 inhibitor combination” value in experiment [6] was “largely abolished”.
As to `CC(C)Oc1ccc(C(=O)Cn2ccnc2)cc1-n1c(CN2CCN(C(=O)COc3ccc(Cl)cc3)CC2)nc2ccccc2c1=O` [IKE, imidazole ketone erastin], the “effect of BRCA1 deficiency on the lipid peroxidation and ferroptosis induced by the compound” value in experiment [4] is “remarkably repressed”. Besides, the “effect of BRCA2 depletion on cellular sensitivity to the compound” value in experiment [7] is given as “did not affect”. Besides, the “effect of VDAC3 deletion on the lipid peroxidation, ferroptosis or sensitivity induced by the compound” value in experiment [5] was “largely abolished”.
Take `CC(C)(C)c1cc(O)ccc1O` [tert-butylhydroquinone]: the “effect on RSL3-induced ferroptosis” value in experiment [4] (setting [9]) is “rendered these cells resistant to RSL3-induced ferroptosis”. For the same compound, in experiment [6] (SUM149 cells), the “effect on ferroptosis induced by olaparib+RSL3 combination” value is “suppressed”. In addition, the GPX4 levels entry in experiment [2] is recorded as “increased GPX4 levels”. The “NRF2 and GPX4 levels” value in experiment [2] (setting [9]) was “induced both NRF2 and GPX4 levels”.
In the case of `CC1(C)CCCC(C)(C)N1[O]` [TEMPO], the “effect on Erastin-induced ferroptosis” value in experiment [1] was “completely suppressed”.
For the compound `CC(C)(C)OO` [TBH, tert-butyl hydroperoxide], the “cell death in BRCA1-deficient versus BRCA1-proficient cells” value in experiment [3] (SUM149 or BRCA1 sg HS578T cells compared with HS578T cells) is listed as “induced more cell death”.
Turning to `CN1C(=O)NC(Cc2c[nH]c3c(Cl)cccc23)C1=O` (centres unmarked) [Nec-1s], in experiment [6], the “effect on cell death induced by PARP inhibitor+GPX4 inhibitor combination” value is on record as “not”.
Consider `NC(=O)c1cccc2cn(-c3ccc([C@@H]4CCCNC4)cc3)nc12` [niraparib], for which the NCOA4 expression result in experiment [8] is given as “significantly induced”.
